Test results as given in paper PMC9959349, “Discovery of the 3-Amino-1,2,4-triazine-Based Library as Selective PDK1 Inhibitors with Therapeutic Potential in Highly Aggressive Pancreatic Ductal Adenocarcinoma” (International Journal of Molecular Sciences, 2023).

Experiments:
[1] = system: S232 PDH E1 alpha protein (PDHA1) phosphorylation in LLC tissue; test: PDH phosphorylation in mice tumor tissues (ELISA); format: in vivo, C57BL mice; details: LLC-bearing mice, 5i 20 mg kg−1 daily i.p., tumors collected day 15
Method: As a proof-of-concept of PDK inhibitory activity of the newly developed 3-amino 1,2,4-triazines, we also assessed the phosphorylation level of S232-PDHA1 in tumor samples of animals treated with 5i. Tumors of treated animals collected on day 15 were homogenized and phopho-S232-PDHA1 levels were quantified by an ELISA Kit.
The phosphorylation level of S232 PDH E1 alpha protein (PDHA1) in LLC tissue homogenates was assessed by ELISA Kit (Abcam) following the manufacturer’s instructions. The amount of phosphorylated S232 PDHA1 protein was detected by measuring the absorbance of each well at 600 nm, using a Bio-Rad 680 microplate reader.

PSN-1 cells [2] = test: Mitochondrial membrane potential (Mito-ID kit); format: cell-based, human; details: IC50 concentrations
Method: The ΔΨ was assayed using the Mito-ID® Membrane Potential Kit according to the manufacturer’s instructions (Enzo Life Sciences, Farmingdale, NY, USA) as previously described. Briefly, PSN-1 cells (8 × 10^3 per well) were seeded in 96-well plates; after 24 h, cells were washed with PBS and loaded with Mito-ID Detection Reagent for 30 min at 37 °C in the dark. Afterward, cells were incubated with tested compounds for 60 min. CCCP (Carbonyl cyanide 3-chlorophenyl-hydrazone) was used as the positive control. Fluorescence intensity was estimated using a VICTOR X3 (PerkinElmer, Waltham, MA, USA) plate reader at 490 (excitation) and 590 nm (emission).

[3] = system: murine Lewis Lung Carcinoma (LLC); test: In vivo anticancer activity, LLC solid tumor model; details: LLC-bearing C57BL mice, daily dosing days 7-14, evaluated day 15; 5i 20 mg kg−1 i.p., gemcitabine 60 mg kg−1, cisplatin 3 mg kg−1
Source text: Seven days after tumor inoculation the tumor-bearing mice were randomized into vehicle control and treatment groups.
The LLC was implanted intramuscularly (i.m.) as a 2 × 10^6 cell inoculum into the right hind leg of 8-week-old male and female C57BL mice (24 ± 3 g body weight). After 7 days from tumor implantation (visible tumors), mice were randomly divided into 4 groups (8 animals per group) and subjected to daily i.p. administration. […] At day 15, animals were sacrificed, the legs were amputated at the proximal end of the femur, and the inhibition of tumor growth was determined from the difference in the weights of the tumor-bearing leg and the healthy leg of the animals, expressed as a percentage referenced to the control animals. Body weight was measured at day 0 and from day 7 onwards every 2 days and was taken as a parameter for systemic toxicity. All presented values are the means ± SD of no less than three measurements.

[4] = system: caspase-3 and -8 in PSN-1 cells; test: Caspase-3 and -8 activity; format: cell-based, human; details: 24 h, IC50 doses
Method: Apoptotic cell death can be triggered by a mitochondria-mediated or mitochondrial-independent pathways. In the […], caspase-8 and caspase-3 play an essential role. […] Staurosporine (STS), an alkaloid inducing apoptosis through caspase-3 and -8 activation was used as a positive control. […] Caspase-3 and -8 cleavage reached values similar to that induced by the well-known caspase-dependent apoptosis inducer staurosporine (Figure 10C).
Protein aliquots (100 μg) were stained at 37 °C for 60 min with fluorescent caspase-3 (N-acetyl-Asp-Glu-Val-Asp-AMC, AMC = 7-amino-4-methylcoumarin) or caspase-8 (Ac-Val-Glu-Thr-Asp-AMC) substrates. Substrate hydrolysis was measured after 60 min by monitoring the release of AMC using a a Tecan microplate reader (excitation at 370 nm, emission at 460 nm).

PSN-1 cells [5] = test: Cellular lactate production; format: cell-based, human; details: IC50 concentrations
Method: (§1) Cells were treated with DAP or representative compounds at IC50 concentrations and the changes in OCR and in the intracellular lactate formation were monitored.
PSN-1 cells (2 × 10^5) were seeded in a six-well plate in a growth medium (4 mL). After 24 h, cells were incubated for 60 min with IC50 concentrations of tested compounds. Changes in lactate production were assessed via colorimetric microplate assay (Lactate assay kit®, Merk, St. Louis, MO, USA) according to the manufacturer’s instructions. The intracellular lactate concentration was detected by measuring the absorbance of each well at 570 nm, using a Bio-Rad 680 microplate reader.

PSN-1 cells [6] = test: Cellular oxygen consumption (Mito-ID Extracellular O2 Sensor Kit); format: cell-based, human; details: IC50 concentrations
Method: as §1
PSN-1 cells (2 × 10^5) were seeded in a six-well plate in growth medium (4 mL). After 24 h, cells were incubated for 60 min with IC50 concentrations of tested compounds. Subsequently, oxygen consumption was assessed by Mito-ID® Extracellular O2 Sensor Kit according to manufacturer’s instructions. Fluorescence was measured using a Tecan microplate reader (Ex 340–400 nm, Em 630–680 nm).

PSN-1 cells [7] = test: ROS production (CM-H2DCFDA); format: cell-based, human; details: 5 µM test compounds, antimycin 3 µM as positive control
Method: Consistently, tested compounds, although to different extents, were effective in reducing total cellular sulfhydryl contents in PSN-1-treated cells (Figure 9B).
The production of ROS was measured in PSN-1 cells (10^4 per well) grown for 24 h in a 96-well plate in RPMI medium without phenol red (Sigma Aldrich, Germany). Cells were then washed with PBS and loaded with 10 μM 5-(and-6)-chloromethyl-2′,7′-dichlorodihydrofluorescein diacetate acetylester (CM–H2DCFDA) (Molecular Probes-Invitrogen, Eugene, OR, USA) for 45 min, in the dark. Afterward, cells were washed with PBS and incubated with tested compounds. Fluorescence increase was estimated utilizing the wavelengths of 485 nm (excitation) and 527 nm (emission) in a VICTOR X3 (PerkinElmer, USA) plate reader. Antimycin (3 μM, Sigma Aldrich), a potent inhibitor of Complex III in the electron transport chain, was used as the positive control.

PSN-1 cells [8] = test: 3D spheroid cytotoxicity, acid phosphatase (APH) assay, PSN-1; details: read-out: IC50 ±S.D. PSN-1 (3D cytotoxicity); spheroids, 72 h, APH test
Method: The PDAC cancer spheroids were treated with tested compounds for 72 h, and cell viability was assessed by means of the acid phosphatase (APH) assay (Table 3).
An APH-modified assay was used for determining cell viability in 3D spheroids, as previously described [61]. Briefly, the pre-seeded spheroids were treated with fresh medium containing the compound to be studied at the appropriate concentration (range 2.5–200 μM). Triplicate cultures were established for each treatment. After 72 h, each well was treated with 100 μL of the assay buffer (0.1 M sodium acetate, 0.1% Triton-X-100, supplemented with ImmunoPure p-nitrophenyl phosphate; Sigma Chemical Co., Ltd.) and, following 3 h of incubation, 10 μL of 1 M NaOH solution was added. […] The mean absorbance for each drug dose was expressed as a percentage of the control untreated well absorbance (T/C) and plotted vs. drug concentration. […] The evaluation was based on means from at least four independent experiments.

PSN-1 cells [9] = test: TEM analysis of mitochondria; format: cell-based, human; details: 24 h, IC50 concentrations
Method: In addition, TEM analyses were performed on PSN-1 cancer cells after 24 h treatment with IC50 concentrations of the representative compounds 5i and 6h.
About 10^6 PSN-1 cancer cells were seeded in 24-well plates and, after 24 h incubation, were treated with IC50 concentrations of tested compounds and incubated for an additional 24 h. Cells were then washed with cold PBS, harvested, and directly fixed with 1.5% glutaraldehyde buffer with 0.2 M sodium cacodylate, pH 7.4. After washing with buffer and postfixation with 1% OsO4 in 0.2 M cacodylate buffer, specimens were dehydrated and embedded in epoxy resin (Epon Araldite). Sagittal serial sections (1 μm) were counterstained with toluidine blue; thin sections (90 nm) were given contrast by staining with uranyl acetate and lead citrate. Micrographs were taken with a Hitachi H-600 electron microscope (Hitachi, Tokyo, Japan) operating at 75 kV. All photos were typeset in Corel Draw 11.

Cn1cc(-c2nnc(N)nc2-c2cn(C)c3ccc(F)cc23)c2ccccc21 [5i]
phospho-S232-PDHA1 level in tumor samples [1]: dramatically reduced PDH phosphorylation
percentage of cells with hypopolarized mitochondrial membrane potential (in words) (PSN-1 cells [2]): significantly increased
reduction in tumor growth compared to the control group [3]: about 80%
caspase-3 and -8 activation [4]: significantly activated
lactate production (PSN-1 cells [5]): more potent than DAP
cellular oxygen consumption (OCR) (PSN-1 cells [6]): more effective than DAP
ROS basal level production / hydrogen peroxide formation (PSN-1 cells [7]): even higher than that provoked by antimycin
IC50 (PSN-1 cells [8]): 4.9 ± 0.8 µM
mitochondrial morphology (TEM) (PSN-1 cells [9]): dramatic swelling of the mitochondria
